According to patent US20260284018A1, “DUAL INHIBITORS OF DYRK1A AND 5-HT2 FOR TREATING A BRAIN DISORDER” (THE REGENTS OF THE UNIVERSITY OF CALIFORNIA, priority 2023, published 2026):

Tests used:
[1] = target: T1, ALK (Homo sapiens, UniProt Q9UM73); conditions: 10 μM; cited from earlier work
T1 construct: purchased Eurofins DiscoverX

[2] = target: T2, BTK (Homo sapiens, UniProt Q06187); conditions: 10 μM; cited from earlier work
T2 construct: purchased Eurofins DiscoverX

[3] = target: T3, CDK11 (Homo sapiens, UniProt Q9BWU1); conditions: 10 μM; cited from earlier work
T3 construct: purchased Eurofins DiscoverX

[4] = target: T4, CDK2 (Homo sapiens, UniProt P24941); conditions: 10 μM; cited from earlier work
T4 construct: purchased Eurofins DiscoverX

[5] = target: T5, CHEK1 (Homo sapiens, UniProt O14757); conditions: 10 μM; cited from earlier work
T5 construct: purchased Eurofins DiscoverX
T5 sequence (O14757 whole entry): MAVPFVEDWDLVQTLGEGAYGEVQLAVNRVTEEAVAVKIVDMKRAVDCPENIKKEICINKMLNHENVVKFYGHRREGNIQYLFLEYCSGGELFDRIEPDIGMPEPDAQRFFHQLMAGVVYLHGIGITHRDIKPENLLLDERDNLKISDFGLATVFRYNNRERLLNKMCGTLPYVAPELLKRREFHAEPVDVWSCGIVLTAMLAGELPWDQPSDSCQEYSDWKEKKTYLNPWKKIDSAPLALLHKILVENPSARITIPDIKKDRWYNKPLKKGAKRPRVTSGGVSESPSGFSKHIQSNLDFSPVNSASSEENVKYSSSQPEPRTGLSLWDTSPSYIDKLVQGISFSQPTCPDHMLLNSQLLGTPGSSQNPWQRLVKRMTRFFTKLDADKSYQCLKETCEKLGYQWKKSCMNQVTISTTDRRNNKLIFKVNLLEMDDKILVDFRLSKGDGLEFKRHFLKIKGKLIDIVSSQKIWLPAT

[6] = target: T6, CSNK1G2 (Homo sapiens, UniProt P78368); conditions: 10 μM; cited from earlier work
T6 construct: purchased Eurofins DiscoverX

[7] = target: T7, EGFR (Homo sapiens, UniProt P00533); conditions: 10 μM; cited from earlier work
T7 construct: purchased Eurofins DiscoverX
T7 sequence (P00533 25-1210): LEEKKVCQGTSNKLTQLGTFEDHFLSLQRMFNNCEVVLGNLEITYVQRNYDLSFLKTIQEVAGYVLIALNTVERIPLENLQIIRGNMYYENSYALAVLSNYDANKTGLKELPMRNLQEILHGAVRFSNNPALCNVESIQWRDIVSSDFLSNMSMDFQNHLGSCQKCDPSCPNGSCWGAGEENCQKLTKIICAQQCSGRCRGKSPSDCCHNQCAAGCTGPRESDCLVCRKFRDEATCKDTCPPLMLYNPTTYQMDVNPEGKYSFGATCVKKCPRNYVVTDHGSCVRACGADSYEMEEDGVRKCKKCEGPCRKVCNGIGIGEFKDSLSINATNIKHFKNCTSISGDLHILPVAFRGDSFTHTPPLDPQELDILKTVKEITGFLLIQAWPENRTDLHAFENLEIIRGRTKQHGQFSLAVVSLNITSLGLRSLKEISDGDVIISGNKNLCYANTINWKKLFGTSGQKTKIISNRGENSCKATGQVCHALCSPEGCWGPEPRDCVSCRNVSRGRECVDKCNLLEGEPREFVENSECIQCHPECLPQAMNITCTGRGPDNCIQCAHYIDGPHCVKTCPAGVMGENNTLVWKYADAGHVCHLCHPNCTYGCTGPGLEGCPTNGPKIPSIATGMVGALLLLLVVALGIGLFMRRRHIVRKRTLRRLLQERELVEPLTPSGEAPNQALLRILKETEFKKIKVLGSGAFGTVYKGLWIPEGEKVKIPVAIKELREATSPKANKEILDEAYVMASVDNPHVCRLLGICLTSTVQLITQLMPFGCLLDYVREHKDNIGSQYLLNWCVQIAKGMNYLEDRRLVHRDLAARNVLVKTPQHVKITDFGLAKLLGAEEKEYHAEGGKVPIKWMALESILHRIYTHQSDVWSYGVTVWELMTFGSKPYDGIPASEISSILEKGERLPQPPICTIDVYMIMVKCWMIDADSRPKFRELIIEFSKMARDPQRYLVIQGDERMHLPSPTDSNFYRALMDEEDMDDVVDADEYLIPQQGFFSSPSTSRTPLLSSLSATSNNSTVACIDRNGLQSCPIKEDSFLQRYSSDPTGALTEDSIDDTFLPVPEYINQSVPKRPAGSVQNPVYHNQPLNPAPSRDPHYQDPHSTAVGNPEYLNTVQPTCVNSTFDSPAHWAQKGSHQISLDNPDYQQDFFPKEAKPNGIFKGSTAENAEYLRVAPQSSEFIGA

[8] = target: T8, EPHA2 (Homo sapiens, UniProt P29317); conditions: 10 μM; cited from earlier work
T8 construct: purchased Eurofins DiscoverX

[9] = target: T9, ERBB2 (Homo sapiens, UniProt P04626); conditions: 10 μM; cited from earlier work
T9 construct: purchased Eurofins DiscoverX

[10] = target: T10, ERBB4 (Homo sapiens, UniProt Q15303); conditions: 10 μM; cited from earlier work
T10 construct: purchased Eurofins DiscoverX

[11] = target: T11, FAK (Homo sapiens, UniProt Q05397); conditions: 10 μM; cited from earlier work
T11 construct: purchased Eurofins DiscoverX

[12] = target: T12, FGFR3 (Homo sapiens, UniProt P22607); conditions: 10 μM; cited from earlier work
T12 construct: purchased Eurofins DiscoverX

[13] = target: T13, GSK3B (Homo sapiens, UniProt P49841); conditions: 10 μM; cited from earlier work
T13 construct: purchased Eurofins DiscoverX

[14] = target: T14, JNK2 (Homo sapiens, UniProt P45984); conditions: 10 μM; cited from earlier work
T14 construct: purchased Eurofins DiscoverX
T14 sequence (P45984 whole entry): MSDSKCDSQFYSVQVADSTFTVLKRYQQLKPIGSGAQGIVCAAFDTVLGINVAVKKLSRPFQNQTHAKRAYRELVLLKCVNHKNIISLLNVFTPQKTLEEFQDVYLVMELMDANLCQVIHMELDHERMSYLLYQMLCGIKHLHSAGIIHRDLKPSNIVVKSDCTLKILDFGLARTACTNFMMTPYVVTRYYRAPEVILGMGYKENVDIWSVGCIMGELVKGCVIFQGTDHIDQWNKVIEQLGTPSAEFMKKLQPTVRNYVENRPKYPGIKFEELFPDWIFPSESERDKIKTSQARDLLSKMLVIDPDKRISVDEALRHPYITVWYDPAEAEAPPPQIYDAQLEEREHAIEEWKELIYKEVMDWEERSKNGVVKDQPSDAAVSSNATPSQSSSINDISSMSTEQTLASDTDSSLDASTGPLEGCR

[15] = target: T15, JNK3 (Homo sapiens, UniProt P53779); conditions: 10 μM; cited from earlier work
T15 construct: purchased Eurofins DiscoverX

[16] = target: T16, MAP3K4 (Homo sapiens, UniProt Q9Y6R4); conditions: 10 μM; cited from earlier work
T16 construct: purchased Eurofins DiscoverX (KINOMEscan scanEDGE service)

[17] = target: T17, MAPKAPK2 (Homo sapiens, UniProt P49137); conditions: 10 μM; cited from earlier work
T17 construct: purchased Eurofins DiscoverX (KINOMEscan scanEDGE service)
T17 sequence (P49137 whole entry): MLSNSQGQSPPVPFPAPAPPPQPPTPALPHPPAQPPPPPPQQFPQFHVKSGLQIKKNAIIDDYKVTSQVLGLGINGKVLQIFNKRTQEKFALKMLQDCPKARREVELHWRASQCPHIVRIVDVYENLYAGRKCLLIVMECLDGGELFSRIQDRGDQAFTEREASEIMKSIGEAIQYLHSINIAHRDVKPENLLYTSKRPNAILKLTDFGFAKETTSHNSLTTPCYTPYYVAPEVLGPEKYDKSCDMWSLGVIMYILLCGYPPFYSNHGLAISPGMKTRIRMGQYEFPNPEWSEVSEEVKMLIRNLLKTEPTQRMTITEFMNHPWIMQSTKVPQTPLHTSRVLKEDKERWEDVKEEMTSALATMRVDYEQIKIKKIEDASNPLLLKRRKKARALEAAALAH

[18] = target: T18, MARK3 (Homo sapiens, UniProt P27448); conditions: 10 μM; cited from earlier work
T18 construct: purchased Eurofins DiscoverX (KINOMEscan scanEDGE service)

[19] = target: T19, MET (Homo sapiens, UniProt P08581); conditions: 10 μM; cited from earlier work
T19 construct: purchased Eurofins DiscoverX (KINOMEscan scanEDGE service)

[20] = target: T20, p38-beta (Homo sapiens, UniProt Q15759); conditions: 10 μM; cited from earlier work
T20 construct: purchased Eurofins DiscoverX (KINOMEscan scanEDGE service)
T20 sequence (Q15759 whole entry): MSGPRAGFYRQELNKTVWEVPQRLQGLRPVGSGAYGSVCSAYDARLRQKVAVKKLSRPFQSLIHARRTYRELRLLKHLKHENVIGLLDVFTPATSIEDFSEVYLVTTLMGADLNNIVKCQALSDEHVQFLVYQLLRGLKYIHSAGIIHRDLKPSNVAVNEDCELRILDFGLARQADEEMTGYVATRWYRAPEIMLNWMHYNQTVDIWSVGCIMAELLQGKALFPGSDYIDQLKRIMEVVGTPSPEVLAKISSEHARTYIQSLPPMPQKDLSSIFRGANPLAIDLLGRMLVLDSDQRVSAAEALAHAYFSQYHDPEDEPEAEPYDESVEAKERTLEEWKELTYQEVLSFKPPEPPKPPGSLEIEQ

[21] = target: T21, PCTK1 (Homo sapiens, UniProt Q00536); conditions: 10 μM; cited from earlier work
T21 construct: purchased Eurofins DiscoverX (KINOMEscan scanEDGE service)

[22] = target: T22, PDGFRB (Homo sapiens, UniProt P09619); conditions: 10 μM; cited from earlier work
T22 construct: purchased Eurofins DiscoverX (KINOMEscan scanEDGE service)

[23] = target: T23, PDPK1 (Homo sapiens, UniProt O15530); conditions: 10 μM; cited from earlier work
T23 construct: purchased Eurofins DiscoverX (KINOMEscan scanEDGE service)

[24] = target: T24, PIK3C2B (Homo sapiens, UniProt O00750); conditions: 10 μM; cited from earlier work
T24 construct: purchased Eurofins DiscoverX (KINOMEscan scanEDGE service)

[25] = target: T25, PIK3CG (Homo sapiens, UniProt P48736); conditions: 10 μM; cited from earlier work
T25 construct: purchased Eurofins DiscoverX (KINOMEscan scanEDGE service)

[26] = target: T26, PLK1 (Homo sapiens, UniProt P53350); conditions: 10 μM; cited from earlier work
T26 construct: purchased Eurofins DiscoverX KINOMEscan scanEDGE
T26 sequence (P53350 whole entry): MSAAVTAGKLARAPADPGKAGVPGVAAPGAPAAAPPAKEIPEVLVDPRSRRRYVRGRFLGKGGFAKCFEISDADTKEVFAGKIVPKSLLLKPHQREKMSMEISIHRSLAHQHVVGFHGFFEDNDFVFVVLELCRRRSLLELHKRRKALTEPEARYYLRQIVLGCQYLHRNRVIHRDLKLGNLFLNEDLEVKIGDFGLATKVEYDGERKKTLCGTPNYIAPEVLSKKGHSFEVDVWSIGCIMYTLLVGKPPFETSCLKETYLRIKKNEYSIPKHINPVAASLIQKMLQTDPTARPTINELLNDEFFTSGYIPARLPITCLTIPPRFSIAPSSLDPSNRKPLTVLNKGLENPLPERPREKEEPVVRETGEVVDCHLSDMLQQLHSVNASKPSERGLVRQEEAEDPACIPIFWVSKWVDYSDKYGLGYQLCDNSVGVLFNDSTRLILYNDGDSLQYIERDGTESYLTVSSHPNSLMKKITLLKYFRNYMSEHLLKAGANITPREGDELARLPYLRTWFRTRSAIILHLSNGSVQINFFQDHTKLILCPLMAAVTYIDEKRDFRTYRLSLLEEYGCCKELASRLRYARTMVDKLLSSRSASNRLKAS

[27] = target: T27, PLK3 (Homo sapiens, UniProt Q9H4B4); conditions: 10 μM; cited from earlier work
T27 construct: purchased Eurofins DiscoverX KINOMEscan scanEDGE

[28] = target: T28, RIOK2 (Homo sapiens, UniProt Q9BVS4); conditions: 10 μM; cited from earlier work
T28 construct: purchased Eurofins DiscoverX KINOMEscan scanEDGE

[29] = target: T29, SRPK3 (Homo sapiens, UniProt Q9UPE1); conditions: 10 μM; cited from earlier work
T29 construct: purchased Eurofins DiscoverX KINOMEscan scanEDGE

[30] = target: T30, ZAP70 (Homo sapiens, UniProt P43403); conditions: 10 μM; cited from earlier work
T30 construct: purchased Eurofins DiscoverX KINOMEscan scanEDGE

[31] = test system: cortical neurons; assay: Spinogenesis; format: cell-based, rat; conditions: cortical neurons (DIV15), 10 μM, 24 h
Description: (A) Representative images of cortical neurons (DIV15) treated with compounds (10 μM) for 24 h. (B) Quantification of dendritic spine density (n=29-55 neurons per treatment condition). Data are represented as mean±SEM. *p<0.05, **p<0.01, ***p<0.001, ****p<0.0001, as compared to the vehicle control following a one-way ANOVA with Dunnett's post hoc test. VEH=vehicle (0.2% DMSO).
Spinogenesis. Spinogenesis experiments were performed as previously described with the exception that cells were treated at DIV14 and fixed 24 h after treatment on DIV15. The images were taken on a Nikon HCA confocal microscope with a 100×/NA 1.45 oil objective. Experiments were performed in duplicate with plates prepared using neurons obtained from independent pregnant dams. Images were analyzed by an experimenter blinded to the treatment conditions.

[32] = test system: 97 kinases; assay: KINOMEscan scanEDGE, whole panel; format: binding; conditions: 10 μM
Description: Compounds were screened at 10 μM using the DiscoverX KinomeSCAN™ assay. Results are reported as the % activity relative to the vehicle (i.e., DMSO) control, where lower values indicate higher affinity (see Table 1 for full scan data). The activity of HTW_A_8 fumarate at PIK3CG was minimal (33%) and barely met the threshold for inclusion. […] Data for harmine were obtained from a previous report.
Kinome Scan. Compound HTW_A_8 fumarate was screened against 97 kinases at a single concentration of 10 μM at Eurofins DiscoverX using their KINOMEscan™ scanEDGE assay. The results are reported as the % activity relative to DMSO control, where lower values indicate higher affinity. See Table 1 for the full kinome profile.

T1 sequence (Q9UM73 19-1620): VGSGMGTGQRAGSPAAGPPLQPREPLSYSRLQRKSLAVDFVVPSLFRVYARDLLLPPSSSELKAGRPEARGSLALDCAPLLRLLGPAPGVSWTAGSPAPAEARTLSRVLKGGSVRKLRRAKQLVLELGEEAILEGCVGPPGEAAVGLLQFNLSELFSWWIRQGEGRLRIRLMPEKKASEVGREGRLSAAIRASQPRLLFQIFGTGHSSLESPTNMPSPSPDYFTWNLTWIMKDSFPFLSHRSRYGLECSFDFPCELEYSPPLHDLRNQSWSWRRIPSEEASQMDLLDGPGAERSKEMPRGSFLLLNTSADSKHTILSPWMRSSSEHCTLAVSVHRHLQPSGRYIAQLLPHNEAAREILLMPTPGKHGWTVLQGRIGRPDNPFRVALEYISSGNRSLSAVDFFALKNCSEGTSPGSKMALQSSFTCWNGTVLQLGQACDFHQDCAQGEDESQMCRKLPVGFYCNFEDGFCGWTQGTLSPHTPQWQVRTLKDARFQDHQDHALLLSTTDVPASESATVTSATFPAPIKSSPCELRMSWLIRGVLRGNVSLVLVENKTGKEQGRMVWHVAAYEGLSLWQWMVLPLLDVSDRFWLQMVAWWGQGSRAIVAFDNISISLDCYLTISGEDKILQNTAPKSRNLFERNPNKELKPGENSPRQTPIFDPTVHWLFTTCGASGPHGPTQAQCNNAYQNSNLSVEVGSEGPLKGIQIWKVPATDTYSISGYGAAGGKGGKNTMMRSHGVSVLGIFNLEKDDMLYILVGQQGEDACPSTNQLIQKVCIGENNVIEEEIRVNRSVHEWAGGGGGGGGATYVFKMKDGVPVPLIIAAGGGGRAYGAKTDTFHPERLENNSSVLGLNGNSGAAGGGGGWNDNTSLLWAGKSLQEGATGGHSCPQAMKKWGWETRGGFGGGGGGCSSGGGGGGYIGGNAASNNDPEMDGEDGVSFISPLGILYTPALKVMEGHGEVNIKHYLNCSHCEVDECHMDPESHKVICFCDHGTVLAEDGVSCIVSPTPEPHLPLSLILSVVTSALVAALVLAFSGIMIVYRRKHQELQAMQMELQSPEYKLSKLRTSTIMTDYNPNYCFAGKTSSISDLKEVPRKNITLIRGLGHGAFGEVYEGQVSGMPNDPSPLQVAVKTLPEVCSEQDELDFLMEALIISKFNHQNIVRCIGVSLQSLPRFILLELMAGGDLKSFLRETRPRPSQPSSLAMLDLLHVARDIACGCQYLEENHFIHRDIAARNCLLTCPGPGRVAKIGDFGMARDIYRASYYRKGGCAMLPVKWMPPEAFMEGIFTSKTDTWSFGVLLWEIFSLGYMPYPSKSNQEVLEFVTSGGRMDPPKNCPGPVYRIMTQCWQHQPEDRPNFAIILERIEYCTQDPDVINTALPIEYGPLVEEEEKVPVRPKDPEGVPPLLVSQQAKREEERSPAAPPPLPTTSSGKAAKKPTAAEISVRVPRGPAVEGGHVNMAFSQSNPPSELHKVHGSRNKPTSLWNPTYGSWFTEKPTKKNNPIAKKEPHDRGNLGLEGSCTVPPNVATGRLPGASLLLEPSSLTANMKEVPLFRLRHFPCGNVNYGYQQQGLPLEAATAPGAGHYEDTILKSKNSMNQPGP

For `COc1ccc2c(c1)[nH]c1c(C)nccc12` [Harmine, harmine], which “Percent Control” value [1] is on record?
The value was 92%.

What about the “Percent Control” value [2] of the same compound?
Its value is 100%.

And the “Percent Control” value [3]?
The value was 83%.

And the “Percent Control” value [4]?
The value was 98%.

And the “Percent Control” value [5]?
Its value is 96%.

And the “Percent Control” value [6]?
Its value is 19%.

And the “Percent Control” value [7]?
Its value is 96%.

What about the “Percent Control” value [8] of the same compound?
The value was 93%.

And the “Percent Control” value [9]?
The value was 85%.

And the “Percent Control” value [10]?
The value was 83%.

What about the “Percent Control” value [11] of the same compound?
Its value is 100%.

What about the “Percent Control” value [12] of the same compound?
The value was 94%.

And the “Percent Control” value [13]?
Its value is 71%.

And the “Percent Control” value [14]?
The value was 58%.

What about the “Percent Control” value [15] of the same compound?
Its value is 80%.

What about the “Percent Control” value [16] of the same compound?
Its value is 93%.

And the “Percent Control” value [17]?
The value was 72%.

And the “Percent Control” value [18]?
The value was 91%.

What about the “Percent Control” value [19] of the same compound?
The value was 100%.

And the “Percent Control” value [20]?
Its value is 85%.

What about the “Percent Control” value [21] of the same compound?
The value was 100%.

What about the “Percent Control” value [22] of the same compound?
The value was 84%.

And the “Percent Control” value [23]?
The value was 100%.

What about the “Percent Control” value [24] of the same compound?
The value was 97%.

What about the “Percent Control” value [25] of the same compound?
Its value is 49%.

What about the “Percent Control” value [26] of the same compound?
Its value is 93%.

And the “Percent Control” value [27]?
Its value is 75%.

What about the “Percent Control” value [28] of the same compound?
The value was 74%.

What about the “Percent Control” value [29] of the same compound?
The value was 84%.

What about the “Percent Control” value [30] of the same compound?
The value was 92%.

Which results are given for `COc1ccc2c3ccnc(C)c3n(CCN(C)C)c2c1.O=C(O)/C=C/C(=O)O` [HTW_A_8 fumarate, 2-(7-methoxy-1-methyl-9H-pyrido[3,4-b]indol-9-yl)-N,N-dimethylethan-1-amine Fumarate Salt (2:3)]?
dendritic spine density [31]: significantly increases dendritic spine density; activity at other kinases of the LIPID family (besides PIK3CG) [32]: did not exhibit activity for any other kinase in the LIPID family; kinase family selectivity ([32]; 97 kinases): selective for kinases in the CMGC family
